This note sets out measurements from ChEMBL document CHEMBL2417468, “4β-[4'-(1-(Aryl)ureido)benzamide]podophyllotoxins as DNA topoisomerase I and IIα inhibitors and apoptosis inducing agents” (2013).

What all share (format): functional
One assay deals with SiHa. The experiment in a line: Growth inhibition of human SiHa cells after 48 hrs by sulforhodamine B assay. (In SRB staining, fixed cells bind dye roughly in proportion to their protein.)
Another assay concerns ZR-75-1. Nature of the assay: Growth inhibition of human ZR-75-1 cells after 48 hrs by sulforhodamine B assay.
For another assay, the system named is HOP-62. Nature of the assay: Growth inhibition of human HOP62 cells after 48 hrs by sulforhodamine B assay.
The subject of the next assay is KB. Nature of the assay: Growth inhibition of human KB cells after 48 hrs by sulforhodamine B assay.
Another assay deals with A2780. The experiment in a line: Growth inhibition of human A2780 cells after 48 hrs by sulforhodamine B assay.
A further assay relates to MCF7. Nature of the assay: Growth inhibition of human MCF7 cells after 48 hrs by sulforhodamine B assay. The note with it: MCF7, 48 h.
For a further assay, the system named is COLO 205. The experiment in a line: Growth inhibition of human COLO205 cells after 48 hrs by sulforhodamine B assay.
In a further assay the test system is Gurav. The experiment in a line: Growth inhibition of human Gurav cells after 48 hrs by sulforhodamine B assay.
A further assay relates to DWD. The experiment in a line: Growth inhibition of human DWD cells after 48 hrs by sulforhodamine B assay.
Another assay concerns A549. The experiment in a line: Growth inhibition of human A549 cells after 48 hrs by sulforhodamine B assay.

The source made the active and inactive calls. The calls are words filed in the database; no cut-off is given here.

What is called GI50 is the concentration that inhibits growth by half. `COc1cc([C@@H]2c3cc4c(cc3[C@@H](NC(=O)c3ccc(NC(=O)Nc5cc(C(F)(F)F)cc(C(F)(F)F)c5)cc3)[C@H]3COC(=O)[C@H]23)OCO4)cc(OC)c1OC`: the GI50 entry with SiHa, in the assay with HOP-62, with COLO 205, in the assay with Gurav and with DWD was “inactive” each time. Moreover, the GI50 with ZR-75-1 (ZR-75-1, 48 h) came out at 2.22 µM; with KB it was 2.6 µM; in the assay with A2780 (A2780, 48 h), 2.3 µM; with MCF7, 2.7 µM; with A549 (A549, 48 h), 2.98 µM.
On to `COc1cc([C@@H]2c3cc4c(cc3[C@@H](NC(=O)c3ccc(NC(=O)Nc5c(Cl)cccc5Cl)cc3)[C@H]3COC(=O)[C@H]23)OCO4)cc(OC)c1OC`, for which the GI50 result in the assay with SiHa, in the assay with ZR-75-1, in the assay on HOP-62, with A2780, in the assay with COLO 205 and with Gurav was “inactive” each time. Further, the GI50 result in the assay on DWD and in the assay on A549 was “inactive” each time. Also, the GI50 came to 2.8 µM in the assay with KB and 0.15 µM in the assay on MCF7.
